Assay results reported in patent US20050069522A1, “Combination pharmaceutical agents as inhibitors of HCV replication” (priority 2002, published 2005).

System: HCV replicon (HCV 1b-377-neo replicon cells)
Experiment: HCV replicon cell line FRET assay
Assay type: cell-based
Conditions: Hepatitis C virus; HCV replicon cell line, FRET assay; read-out: Replicon Inhibition Range EC50

Compound	EC50 [nM]
O=C(Nc1ccc(C2S/C(=N\c3cccc(F)c3)N(Cc3ccco3)C2=O)cc1)[C@@H]1CCCN1C(=O)OCc1ccccc1 (stereo partly drawn) [Compound 2, 2S-{4-[2-(3-fluorophenylimino)-3-furan-2ylmethyl-4-oxo-thiazolidin-5yl]-phenylcarbamoyl}pyrrolidine-1-carboxylic acid benzyl ester]	> 5000
O=C(Nc1ccc(C2S/C(=N\c3cccc(F)c3)N(Cc3ccccn3)C2=O)cc1)[C@@H]1CCCN1C(=O)OCc1ccccc1 (some centres unmarked) [Compound 3]	< 100
C[C@H](NC(=O)OCc1ccccc1)C(=O)Nc1ccc(C2S/C(=N\c3cccc(F)c3)N(Cc3ccccn3)C2=O)cc1 (some centres unmarked) [Compound 4]	< 100
Cc1cnc(CN2C(=O)C(c3ccc(NC(=O)[C@@H]4CCCN4C(=O)OCc4ccccc4)cc3)S/C2=N\c2cccc(F)c2)cn1 (some centres unmarked) [Compound 5]	< 100
Cc1cnc(CN2C(=O)C(c3ccc(NC(=O)[C@H](C)NC(=O)OCc4ccccc4)cc3)S/C2=N\c2cccc(F)c2)cn1 (some centres unmarked) [Compound 6]	< 100
O=C(Nc1ccc(C2S/C(=N\c3ccc(N4CCOCC4)cc3)N(Cc3ccco3)C2=O)cc1)[C@@H]1CCCN1C(=O)OCc1ccccc1 (some centres unmarked) [Compound 7]	< 100
O=C(Nc1ccc(C2S/C(=N\c3cccc(F)c3)N(Cc3ccco3)C2=O)cc1)[C@@H]1CCC(=O)N1C(=O)OCc1ccccc1 (some centres unmarked) [Compound 8]	100 to 1000
C[C@H](NC(=O)OCc1ccccc1)C(=O)Nc1ccc(C2S/C(=N\c3ccc(N4CCOCC4)cc3)N(Cc3ccco3)C2=O)cc1 (some centres unmarked) [Compound 10]	< 100
O=C(Nc1ccc(C2S/C(=N\c3cccc4ccncc34)N(Cc3ccco3)C2=O)cc1)[C@@H]1CCCN1C(=O)OCc1ccccc1 (some centres unmarked) [Compound 11]	< 100
C[C@H](NC(=O)OCc1ccccc1)C(=O)Nc1ccc(C2S/C(=N\c3cccc4ccncc34)N(Cc3ccco3)C2=O)cc1 (some centres unmarked) [Compound 12]	< 100
COc1cccc(CN2C(=O)C(c3ccc(NC(=O)[C@@H]4CCCN4C(=O)OCc4ccccc4)cc3)S/C2=N\c2cccc(F)c2)c1 (some centres unmarked) [Compound 13]	100 to 1000
O=C(Nc1ccc(C2S/C(=N\c3cccc(F)c3)N(CC3CCCO3)C2=O)cc1)[C@@H]1CCCN1C(=O)OCc1ccccc1 (some centres unmarked) [Compound 14]	< 100
O=C(Nc1ccc(C2S/C(=N\c3cccc(F)c3)N(Cc3cccnc3)C2=O)cc1)[C@@H]1CCCN1C(=O)OCc1ccccc1 (some centres unmarked) [Compound 15]	< 100
O=C(Nc1ccc(C2S/C(=N\c3cccc(F)c3)N(Cc3ccccc3)C2=O)cc1)[C@@H]1CCCN1C(=O)OCc1ccccc1 (some centres unmarked) [Compound 16]	100 to 1000
O=C(Nc1ccc(C2S/C(=N\c3cccc(F)c3)N(CCOc3ccccc3)C2=O)cc1)[C@@H]1CCCN1C(=O)OCc1ccccc1 (some centres unmarked) [Compound 17]	1000 to 5000
O=C(Nc1ccc(C2S/C(=N\c3cccc(F)c3)N(Cc3ccc(OC(F)(F)F)cc3)C2=O)cc1)[C@@H]1CCCN1C(=O)OCc1ccccc1 (some centres unmarked) [Compound 19]	1000 to 5000
O=C(Nc1ccc(C2S/C(=N\c3cccc(F)c3)N(CCc3cccs3)C2=O)cc1)[C@@H]1CCCN1C(=O)OCc1ccccc1 (some centres unmarked) [Compound 20]	1000 to 5000
C[C@H](NC(=O)OCc1ccccc1)C(=O)Nc1ccc(C2S/C(=N\c3cccc(F)c3)N(CCOc3ccccc3)C2=O)cc1 (some centres unmarked) [Compound 21]	1000 to 5000
C[C@H](NC(=O)OCc1ccccc1)C(=O)Nc1ccc(C2S/C(=N\c3cccc(F)c3)N(Cc3ccc(OC(F)(F)F)cc3)C2=O)cc1 (some centres unmarked) [Compound 23]	1000 to 5000
C[C@H](NC(=O)OCc1ccccc1)C(=O)Nc1ccc(C2S/C(=N\c3cccc(F)c3)N(CCc3cccs3)C2=O)cc1 (some centres unmarked) [Compound 24]	100 to 1000

Compound	EC50 [nM]
COc1cccc(CN2C(=O)C(c3ccc(NC(=O)[C@H](C)NC(=O)OCc4ccccc4)cc3)S/C2=N\c2cccc(F)c2)c1 (some centres unmarked) [Compound 25]	100 to 1000
C[C@H](NC(=O)OCc1ccccc1)C(=O)Nc1ccc(C2S/C(=N\c3cccc(F)c3)N(CC3CCCO3)C2=O)cc1 (some centres unmarked) [Compound 26]	100 to 1000
C[C@H](NC(=O)OCc1ccccc1)C(=O)Nc1ccc(C2S/C(=N\c3cccc(F)c3)N(Cc3cccnc3)C2=O)cc1 (some centres unmarked) [Compound 27]	< 100
COc1ccc(CCN2C(=O)C(c3ccc(NC(=O)[C@H](C)NC(=O)OCc4ccccc4)cc3)S/C2=N\c2cccc(F)c2)cc1OC (some centres unmarked) [Compound 28]	1000 to 5000
C[C@H](NC(=O)OCc1ccccc1)C(=O)Nc1ccc(C2S/C(=N\c3cccc(F)c3)N(Cc3ccc(F)c(F)c3F)C2=O)cc1 (some centres unmarked) [Compound 29]	1000 to 5000
COc1ccc(CCN2C(=O)C(c3ccc(NC(=O)[C@@H]4CCCN4C(=O)OCc4ccccc4)cc3)S/C2=N\c2cccc(F)c2)cc1OC (some centres unmarked) [Compound 30]	1000 to 5000
C[C@H](NC(=O)OCc1ccccc1)C(=O)Nc1cccc(C2S/C(=N\c3cccc(F)c3)N(Cc3ccco3)C2=O)c1 (some centres unmarked) [Compound 32]	1000 to 5000
O=C(Nc1cccc(C2S/C(=N\c3cccc(F)c3)N(Cc3ccco3)C2=O)c1)[C@@H]1CCCN1C(=O)OCc1ccccc1 (some centres unmarked) [Compound 33]	1000 to 5000
CCc1cccc(/N=C2\SC(c3ccc(NC(=O)[C@@H]4CCCN4C(=O)OCc4ccccc4)cc3)C(=O)N2Cc2ccco2)c1 (some centres unmarked) [Compound 36]	1000 to 5000
CCc1cccc(/N=C2\SC(c3ccc(NC(=O)[C@H](C)NC(=O)OCc4ccccc4)cc3)C(=O)N2Cc2ccco2)c1 (some centres unmarked) [Compound 37]	1000 to 5000
O=C(Nc1ccc(C2S/C(=N\c3ccc4c(c3)CCC4)N(Cc3ccco3)C2=O)cc1)[C@@H]1CCCN1C(=O)OCc1ccccc1 (some centres unmarked) [Compound 38]	100 to 1000
C[C@H](NC(=O)OCc1ccccc1)C(=O)Nc1ccc(C2S/C(=N\c3ccc4c(c3)CCC4)N(Cc3ccco3)C2=O)cc1 (some centres unmarked) [Compound 39]	1000 to 5000
Cc1ccc(/N=C2\SC(c3ccc(NC(=O)[C@H](C)NC(=O)OCc4ccccc4)cc3)C(=O)N2Cc2ccco2)c(Cl)c1 (some centres unmarked) [Compound 41]	1000 to 5000
O=C(Nc1ccc(C2S/C(=N\c3cc(F)cc(F)c3)N(Cc3ccco3)C2=O)cc1)[C@@H]1CCCN1C(=O)OCc1ccccc1 (some centres unmarked) [Compound 42]	100 to 1000
C[C@H](NC(=O)OCc1ccccc1)C(=O)Nc1ccc(C2S/C(=N\c3cc(F)cc(F)c3)N(Cc3ccco3)C2=O)cc1 (some centres unmarked) [Compound 43]	100 to 1000
COc1ccc(/N=C2\SC(c3ccc(NC(=O)[C@@H]4CCCN4C(=O)OCc4ccccc4)cc3)C(=O)N2Cc2ccco2)cn1 (some centres unmarked) [Compound 44]	100 to 1000
CCC(C)c1ccc(/N=C2\SC(c3ccc(NC(=O)[C@@H]4CCCN4C(=O)OCc4ccccc4)cc3)C(=O)N2Cc2ccco2)cc1 (some centres unmarked) [Compound 45]	100 to 1000
CCC(C)c1ccc(/N=C2\SC(c3ccc(NC(=O)[C@H](C)NC(=O)OCc4ccccc4)cc3)C(=O)N2Cc2ccco2)cc1 (some centres unmarked) [Compound 46]	1000 to 5000
N#Cc1cccc(/N=C2\SC(c3ccc(NC(=O)[C@@H]4CCCN4C(=O)OCc4ccccc4)cc3)C(=O)N2Cc2ccco2)c1 (some centres unmarked) [Compound 47]	< 100
COc1ccc(C(F)(F)F)cc1/N=C1\SC(c2ccc(NC(=O)[C@@H]3CCCN3C(=O)OCc3ccccc3)cc2)C(=O)N1Cc1ccco1 (some centres unmarked) [Compound 49]	100 to 1000

Compound	EC50 [nM]
COc1ccc(C(F)(F)F)cc1/N=C1\SC(c2ccc(NC(=O)[C@H](C)NC(=O)OCc3ccccc3)cc2)C(=O)N1Cc1ccco1 (some centres unmarked) [Compound 50]	100 to 1000
O=C(Nc1ccc(C2S/C(=N\c3ccc(F)c(Cl)c3)N(Cc3ccco3)C2=O)cc1)[C@@H]1CCCN1C(=O)OCc1ccccc1 (some centres unmarked) [Compound 51]	1000 to 5000
C[C@H](NC(=O)OCc1ccccc1)C(=O)Nc1ccc(C2S/C(=N\c3ccc(F)c(Cl)c3)N(Cc3ccco3)C2=O)cc1 (some centres unmarked) [Compound 52]	1000 to 5000
O=C(Nc1ccc(C2S/C(=N\c3cccc(Cl)c3)N(Cc3ccco3)C2=O)cc1)[C@@H]1CCCN1C(=O)OCc1ccccc1 (some centres unmarked) [Compound 53]	100 to 1000
C[C@H](NC(=O)OCc1ccccc1)C(=O)Nc1ccc(C2S/C(=N\c3cccc(Cl)c3)N(Cc3ccco3)C2=O)cc1 (some centres unmarked) [Compound 54]	100 to 1000
O=C(Nc1ccc(C2S/C(=N\c3cccc(OC(F)(F)F)c3)N(Cc3ccco3)C2=O)cc1)[C@@H]1CCCN1C(=O)OCc1ccccc1 (some centres unmarked) [Compound 55]	100 to 1000
C[C@H](NC(=O)OCc1ccccc1)C(=O)Nc1ccc(C2S/C(=N\c3cccc(OC(F)(F)F)c3)N(Cc3ccco3)C2=O)cc1 (some centres unmarked) [Compound 56]	100 to 1000
Cc1cc(F)ccc1/N=C1\SC(c2ccc(NC(=O)[C@@H]3CCCN3C(=O)OCc3ccccc3)cc2)C(=O)N1Cc1ccco1 (some centres unmarked) [Compound 57]	1000 to 5000
Cc1cc(F)ccc1/N=C1\SC(c2ccc(NC(=O)[C@H](C)NC(=O)OCc3ccccc3)cc2)C(=O)N1Cc1ccco1 (some centres unmarked) [Compound 58]	1000 to 5000
O=C(Nc1ccc(C2S/C(=N\c3ccc(F)cc3Cl)N(Cc3ccco3)C2=O)cc1)[C@@H]1CCCN1C(=O)OCc1ccccc1 (some centres unmarked) [Compound 59]	1000 to 5000
C[C@H](NC(=O)OCc1ccccc1)C(=O)Nc1ccc(C2S/C(=N\c3ccc(F)cc3Cl)N(Cc3ccco3)C2=O)cc1 (some centres unmarked) [Compound 60]	1000 to 5000
C[C@H](NC(=O)OCc1ccccc1)C(=O)Nc1ccc(C2S/C(=N\c3ccc(C(F)(F)F)cc3)N(Cc3ccco3)C2=O)cc1 (some centres unmarked) [Compound 62]	1000 to 5000
O=C(Nc1ccc(C2S/C(=N\c3ccc4c(c3)OCCO4)N(Cc3ccco3)C2=O)cc1)[C@@H]1CCCN1C(=O)OCc1ccccc1 (some centres unmarked) [Compound 63]	< 100
C[C@H](NC(=O)OCc1ccccc1)C(=O)Nc1ccc(C2S/C(=N\c3ccc4c(c3)OCCO4)N(Cc3ccco3)C2=O)cc1 (some centres unmarked) [Compound 64]	< 100
COc1ccc(/N=C2\SC(c3ccc(NC(=O)[C@@H]4CCCN4C(=O)OCc4ccccc4)cc3)C(=O)N2Cc2ccco2)cc1F (some centres unmarked) [Compound 65]	< 100
COc1ccc(/N=C2\SC(c3ccc(NC(=O)[C@H](C)NC(=O)OCc4ccccc4)cc3)C(=O)N2Cc2ccco2)cc1F (some centres unmarked) [Compound 66]	100 to 1000
O=C(Nc1ccc(C2S/C(=N\c3ccc(F)c(C(F)(F)F)c3)N(Cc3ccco3)C2=O)cc1)[C@@H]1CCCN1C(=O)OCc1ccccc1 (some centres unmarked) [Compound 67]	1000 to 5000
C[C@H](NC(=O)OCc1ccccc1)C(=O)Nc1ccc(C2S/C(=N\c3ccc(F)c(C(F)(F)F)c3)N(Cc3ccco3)C2=O)cc1 (some centres unmarked) [Compound 68]	1000 to 5000
Cc1cnc(CN2C(=O)C(c3ccc(NC(=O)[C@H](C)NC(=O)OCc4ccccc4)cc3)S/C2=N\c2ccc(N3CCOCC3)cc2)cn1 (some centres unmarked) [Compound 69]	< 100
